Test results as given in ChEMBL document CHEMBL1275474, “In vitro activity of tigecycline against multidrug-resistant Acinetobacter baumannii and selection of tigecycline-amikacin synergy” (2008).
In brackets after ≈: the same amount, converted by molar mass. Activity calls are given as the source filed them. The calls are words filed in the database; no cut-off is given here.

Legend:
[1] = test system: Acinetobacter baumannii; test: Antimicrobial activity against Acinetobacter baumannii isolate 1198 by microdilution method; format: functional
[2] = test system: Acinetobacter baumannii; test: Antimicrobial activity against Acinetobacter baumannii by microdilution method; format: functional
[3] = test system: Acinetobacter baumannii; test: Antimicrobial activity against Acinetobacter baumannii isolate 853 by microdilution method; format: functional
[4] = test system: Acinetobacter baumannii; test: Antimicrobial activity against Acinetobacter baumannii assessed as susceptible isolates by microdilution method; format: functional
[5] = test system: Acinetobacter baumannii; test: Antimicrobial activity against Acinetobacter baumannii isolate 1826 by microdilution method; format: functional
[6] = test system: Acinetobacter baumannii; test: Bactericidal activity against Acinetobacter baumannii isolate 1198 at 16 ug/ml after 24 hrs by time kill analysis; format: functional, organism-based
[7] = test system: Acinetobacter baumannii; test: Antimicrobial activity against Acinetobacter baumannii by microdilution method in presence of beta-lactamase inhibitor Sulbactam; format: functional
[8] = test system: Acinetobacter baumannii; test: Antimicrobial activity against Acinetobacter baumannii by microdilution method in presence of beta-lactamase inhibitor Tazobactam; format: functional
[9] = test system: Acinetobacter baumannii; test: Bactericidal activity against Acinetobacter baumannii isolate 853 at 0.06 ug/ml at 6 hrs by time kill analysis; format: functional, organism-based
[10] = test system: Acinetobacter baumannii; test: Bactericidal activity against Acinetobacter baumannii isolate 1198 at 1 ug/ml after 24 hrs by time kill analysis; format: functional, organism-based
[11] = test system: Acinetobacter baumannii; test: Bactericidal activity against Acinetobacter baumannii isolate 1826 at 2 ug/ml up to 4 hrs by time kill analysis; format: functional, organism-based
[12] = test system: Acinetobacter baumannii; test: Bactericidal activity against Acinetobacter baumannii isolate 1198 at 2 ug/ml after 24 hrs by time kill analysis; format: functional, organism-based
[13] = test system: Acinetobacter baumannii; test: Bactericidal activity against Acinetobacter baumannii isolate 1826 at 2 ug/ml after 4 hrs by time kill analysis; format: functional, organism-based
[14] = test system: Acinetobacter baumannii; test: Bactericidal activity against Acinetobacter baumannii isolate 1826 at 8 ug/ml after 4 hrs by time kill analysis; format: functional, organism-based
[15] = test system: Acinetobacter baumannii; test: Bactericidal activity against Acinetobacter baumannii isolate 1826 at 8 ug/ml up to 4 hrs by time kill analysis; format: functional, organism-based
[16] = test system: Acinetobacter baumannii; test: Bactericidal activity against Acinetobacter baumannii isolate 853 at 0.5 ug/ml at 6 hrs by time kill analysis; format: functional, organism-based

With `NCC[C@H](O)C(=O)N[C@@H]1C[C@H](N)[C@@H](O[C@H]2O[C@H](CN)[C@@H](O)[C@H](O)[C@H]2O)[C@H](O)[C@H]1O[C@H]1O[C@H](CO)[C@@H](O)[C@H](N)[C@H]1O` [AMIKACIN] the MIC [1] was over 128 µg/mL, the MIC50 [2] was 8 µg/mL (≈ 13.7 µM) and the MIC90 [2] was over 128 µg/mL. The MIC [3] was at most 0.5 µg/mL, the Activity [4] was 53% and the MIC [5] was 2 µg/mL (≈ 3.42 µM). For the same molecule, the Activity [6] was “inactive”.

For `CC1(C)S[C@@H]2[C@H](NC(=O)[C@H](N)c3ccccc3)C(=O)N2[C@H]1C(=O)O` [AMPICILLIN], the MIC50 [7] was 16 µg/mL, the MIC90 [7] was 128 µg/mL and the Activity [4] was 31%.

For `CC(C)(O/N=C(\C(=O)N[C@@H]1C(=O)N2C(C(=O)[O-])=C(C[n+]3ccccc3)CS[C@H]12)c1csc(N)n1)C(=O)O` [CEFTAZIDIME], the MIC50 [2] was 64 µg/mL (≈ 117 µM), the MIC90 [2] was over 64 µg/mL and the Activity [4] was 17%.

Work on `C[C@@H](O)[C@H]1C(=O)N2C(C(=O)O)=C(SCCNC=N)C[C@H]12` [IMIPENEM ANHYDROUS] yielded an MIC50 [2] of 1 µg/mL (≈ 3.34 µM), an MIC90 [2] of 16 µg/mL (≈ 53.4 µM) and an Activity [4] of 86%.

`C[C@H]1COc2c(N3CCN(C)CC3)c(F)cc3c(=O)c(C(=O)O)cn1c23.C[C@H]1COc2c(N3CCN(C)CC3)c(F)cc3c(=O)c(C(=O)O)cn1c23.O` [LEVOFLOXACIN] was tested, and the MIC50 [2] was 8 µg/mL, the MIC90 [2] was 16 µg/mL and the Activity [4] was 35%.

For `CN(C)c1ccc(O)c2c1C[C@H]1C[C@H]3[C@H](N(C)C)C(O)=C(C(N)=O)C(=O)[C@@]3(O)C(O)=C1C2=O` [MINOCYCLINE], the MIC50 [2] was 2 µg/mL (≈ 4.37 µM), the MIC90 [2] was 8 µg/mL (≈ 17.5 µM) and the Activity [4] was 78%.

`CCN1CCN(C(=O)N[C@@H](C(=O)N[C@@H]2C(=O)N3[C@@H]2SC(C)(C)[C@@H]3C(=O)O)c2ccccc2)C(=O)C1=O` [PIPERACILLIN] gave an MIC50 [8] of over 128 µg/mL, an MIC90 [8] of over 128 µg/mL and an Activity [4] of 9%.

`CN(C)c1cc(NC(=O)CNC(C)(C)C)c(O)c2c1C[C@H]1C[C@H]3[C@H](N(C)C)C(O)=C(C(N)=O)C(=O)[C@@]3(O)C(O)=C1C2=O` [TIGECYCLINE] was tested, and the Activity [9] was “inactive”, the MIC [1] was 4 µg/mL (≈ 6.83 µM) and the Activity [10] was “inactive”. For the same molecule, the Activity [11] was “Active”, the Activity [12] was “inactive” and the MIC [2] was 0.06 µg/mL (≈ 0.102 µM). For the same molecule, the Activity [13] was “inactive”, the MIC [3] was 0.12 µg/mL (≈ 0.205 µM) and the MIC [5] was 64 µg/mL (≈ 109 µM). For the same molecule, the Activity [14] was “inactive” and the Activity [15] was “Active”.

Work on GENTAMICIN yielded an MIC50 [2] of over 32 µg/mL, an MIC90 [2] of over 32 µg/mL and an Activity [4] of 16%.

With POLYMYXIN B the Activity [16] was “inactive”, the MIC [1] was 1 µg/mL and the MIC50 [2] was 1 µg/mL. The MIC90 [2] was 2 µg/mL, the MIC [3] was 1 µg/mL and the Activity [4] was 99%. It also gave an MIC [5] of 2 µg/mL.
